The source of these data is paper PMC12040169 (PLOS Biology, 2025).

This data set in a line: in vitro. The settings on record: human, hela cells, % viability.

By viability is commonly meant a read-out of living cells in per cent, often relative to untreated cells. As for `Cc1ccnc2nc(C(=O)OC(C)C(=O)c3ccc4c(c3)CCC4)nn12` (stereo not shown) [CBK304528], the viability at 28.5 h, 10 µM amounted to 89.5%.

Regarding `Cc1nnc(CS(=O)(=O)Cc2csc(C(C)C)n2)n1C1CC1` [CBK304106], the viability at 28.5 h, 10 µM worked out at 101%. Under `CC1CC(=O)N(c2cccc(C(=O)Nc3cccc(-c4cccc(F)c4)c3)c2)C1=O` (stereo not shown) [CBK285734] stands 103%; under `CCCc1ccc(-c2cc(C(=O)NCc3cccnc3)c3ccccc3n2)cc1` [CBK300494], 92.6%. Under `O=C(CN1CCC(c2ccccc2F)CC1)N1CCCC1` [CBK283578] stands 98.2%. Under `CC1CCN(S(=O)(=O)c2ccc(C(=O)N[C@@H](C)C(=O)O)cc2)CC1` [CBK297106] stands 96.6%; under `Cc1cccc(C)c1N(C1CCNCC1)S(=O)(=O)c1ccc2c(c1)CCO2` [CBK153668T], 99.1%.

For `CS(=O)(=O)N(Cc1ccc(Cl)cc1)c1ccc(C(=O)Nc2ccccc2C(F)(F)F)cc1` [CBK263988], the viability at 28.5 h, 10 µM stood at 101%.

For `COc1ccc(C(=O)Nc2nnc(C3=COCCO3)o2)cc1` [CBK287409], the viability at 28.5 h, 10 µM turned out to be 93.9%. As to `CS(=O)(=O)Nc1nccnc1-c1ccc2c(c1)OCO2` [CBK050934], the viability at 28.5 h, 10 µM is 95.1%.

Take `Cc1ccccc1-c1ccccc1CC1(C(=O)N(C)C)CCN(C(=O)C2CC=CCC2)CC1` (stereo not shown) [CBK285733]: the viability at 28.5 h, 10 µM is 97.2%.

`O=C(Cc1ccc(F)cc1F)Nc1ccc2cc[nH]c2c1` [CBK160044]: the viability at 28.5 h, 10 µM was 102%. As to `CC1CCc2nc(NC(=O)C3CN(S(=O)(=O)c4ccc(F)cc4)C3)sc2C1` (stereo not shown) [CBK286004], the viability at 28.5 h, 10 µM was 110%. Under `O=C1NC(=O)C(CC(=O)N2CCC3(CCN(C(=O)Cc4c[nH]c5ccccc45)C3)C2)N1` (stereo not shown) [CBK131436] stands 92.8%; under `O=C(NC1CCCC1)c1ncoc1-c1ccccc1` [CBK281937], 100%.

With `CCOC(=O)c1[nH]c(=O)[nH]c1CSc1nc(C)cc(C)n1` [CBK019514], the viability at 28.5 h, 10 µM was determined as 109%. Under `CC(C)NC(=O)N1CCN2C(=O)N(c3ccccc3)C(=O)[C@@H]2C1` [CBK289579] stands 99.4%.

In the case of `COc1ccc2[nH]c([C@H]3CCN(S(C)(=O)=O)C3)nc2c1` [CBK289377], the viability at 28.5 h, 10 µM stood at 111%. Under `CCOC(=O)C1(Cc2cc(-c3ccccc3)no2)CCNCC1` [CBK284924] stands 111%; under `CCc1cc(C(=O)OC)c(NC(=S)Nc2nc3cc(C)c(C)cc3s2)s1` [CBK267116], 81%; under `CCN1CCN(C(=O)Cc2cccnc2)CC1` [CBK200375], 92.3%. In the case of `CCNC(=S)N[C@@H]1CC[C@@]2(c3ccc([N+](=O)[O-])cc3)CCN(CCc3ccccc3)[C@H]2C1` [CBK004677], the viability at 28.5 h, 10 µM came to 90.5%.

As for `O=C(C1=C(O)C(=O)N(c2ccc([N+](=O)[O-])cc2)C1c1ccccc1)c1ccccc1` (stereo not shown) [CBK263787], the viability at 28.5 h, 10 µM amounted to 94.4%. Under `CC(=O)c1nnn(-c2ccc(Cl)cc2Cl)c1C` [CBK085972] stands 86.7%.

As to `Cc1c(O)cccc1Nc1cc(-c2cccc(N(C)C)c2)ncn1` [CBK036995], the viability at 28.5 h, 10 µM worked out at 94.3%. Under `O=C(CCN1CCOCC1)NNC(=O)Nc1cccc(C(F)(F)F)c1` [CBK269017] stands 104%; under `CC1CN(C(=O)NC(=O)c2ccc(-c3csnn3)cc2)CC(C)O1` (stereo not shown) [CBK017091], 87.7%.

For `Cc1ccc(C(=O)NC[C@H]2O[C@@H](CC(=O)N3CCCC3)[C@H](O)[C@@H]2O)cc1` [CBK288912], the viability at 28.5 h, 10 µM came out at 98.9%. Under `O=C(Cn1c(-c2ccccn2)nc2ccccc21)NCCN1CCOCC1` [CBK267214] stands 95%; under `Nc1nc(=O)n([C@@H]2O[C@H](CO)[C@H](O)C2O)cc1CO` (stereo partly shown) [CBK201160], 92.7%. Under `Cc1ccc(C(=O)NCCN2CCOCC2)cc1S(=O)(=O)N1CCCCC1` [CBK267329] stands 86.2%.
